These results are taken from patent US20070179154A1, “Coumarin derivatives, process for their production and use thereof” (Takeda Pharmaceutical Company Limited, priority 2002, published 2007).

One may read the melting point as the temperature of the solid-liquid transition. `Cc1cc2c(-c3cccc(C(=O)O)c3)c(CC(=O)Nc3ccc(Cl)cc3C(F)(F)F)c(=O)oc2cc1Cl` [Example 1, 3-[7-chloro-3-[2-[[4-chloro-2-(trifluoromethyl)phenyl]amino]-2-oxoethyl]-6-methyl-2-oxo-2H-chromen-4-yl]benzoic acid] yielded a melting point of 270 to 272 °C.

Compound `Cc1cc2c(-c3cccc(C(=O)O)c3)c(CC(=O)Nc3ccc(F)cc3C(F)(F)F)c(=O)oc2cc1Cl` [Example 2] returned a melting point of 278 to 280 °C.

The compound `CCOC(=O)/C=C/c1cc(-c2c(CC(=O)Nc3ccc(Cl)cc3C(F)(F)F)c(=O)oc3cc(Cl)c(C)cc23)ccc1F` [Example 3, ethyl (2E)-3-[5-[7-chloro-3-[2-[[4-chloro-2-(trifluoromethyl)phenyl]amino]-2-oxoethyl]-6-methyl-2-oxo-2H-chromen-4-yl]-2-fluorophenyl]-2-propenoate] came in with a melting point of 160 to 162 °C.

Compound `CCOC(=O)/C=C/c1cccc(-c2c(CC(=O)Nc3ccc(F)cc3C(F)(F)F)c(=O)oc3cc(C)c(Cl)cc23)c1` [Example 5, ethyl (2E)-3-[3-[6-chloro-3-[2-[[4-fluoro-2-(trifluoromethyl)phenyl]amino]-2-oxoethyl]-7-methyl-2-oxo-2H-chromen-4-yl]phenyl]-2-propenoate] gave a melting point of 206 to 209 °C.

`CCOC(=O)/C=C/c1cccc(-c2c(CC(=O)Nc3ccc(F)cc3C(F)(F)F)c(=O)oc3cc(Cl)c(F)cc23)c1` [Example 6, ethyl (2E)-3-[3-[7-chloro-6-fluoro-3-[2-[[4-fluoro-2-(trifluoromethyl)phenyl]amino]-2-oxoethyl]-2-oxo-2H-chromen-4-yl]phenyl}-2-propenoate]: the melting point was 151 to 153 °C.

On to `CCOC(=O)/C=C/c1cccc(-c2c(CC(=O)Nc3ccc(F)cc3C(F)(F)F)c(=O)oc3cc(Cl)ccc23)c1` [Example 7, ethyl (2E)-3-[3-[7-chloro-3-[2-[[4-fluoro-2-(trifluoromethyl)phenyl]amino]-2-oxoethyl]-2-oxo-2H-chromen-4-yl]phenyl]-2-propenoate], for which the melting point lay within 166 to 169 °C.

`CCOC(=O)CCc1cccc(-c2c(CC(=O)Nc3ccc(F)cc3C(F)(F)F)c(=O)oc3cc(Cl)c(C)cc23)c1` [Example 8, ethyl 3-[5-[7-chloro-3-[2-[[4-fluoro-2-(trifluoromethyl)phenyl]amino]-2-oxoethyl]-6-methyl-2-oxo-2H-chromen-4-yl]phenyl]propionate]: the melting point fell in the range of 121 to 123 °C.

For the compound `CCOC(=O)CCc1cccc(-c2c(CC(=O)Nc3ccccc3C(F)(F)F)c(=O)oc3cc(Cl)c(C)cc23)c1` [Example 9, ethyl 3-[3-[7-chloro-6-methyl-3-[2-[[2-(trifluoromethyl)phenyl]amino]-2-oxoethyl]-2-oxo-2H-chromen-4-yl]phenyl]propionate], the melting point lay within 115 to 117 °C.

`CCOC(=O)CCc1cccc(-c2c(CC(=O)Nc3ccc(F)cc3C(F)(F)F)c(=O)oc3cc(C)c(Cl)cc23)c1` [Example 10, ethyl 3-[3-[6-chloro-3-[2-[[4-fluoro-2-(trifluoromethyl)phenyl]amino]-2-oxoethyl]-7-methyl-2-oxo-2H-chromen-4-yl]phenyl]propionate] registered a melting point of 158 to 160 °C.

`CCOC(=O)CCc1cccc(-c2c(CC(=O)Nc3ccc(F)cc3C(F)(F)F)c(=O)oc3cc(Cl)c(F)cc23)c1` [Example 11, ethyl 3-[3-[7-chloro-6-fluoro-3-[2-[[4-fluoro-2-(trifluoromethyl)phenyl]amino]-2-oxoethyl]-2-oxo-2H-chromen-4-yl]phenyl]propionate] gave a melting point of 142 to 144 °C.

Take `CCOC(=O)CCc1cccc(-c2c(CC(=O)Nc3ccc(F)cc3C(F)(F)F)c(=O)oc3cc(Cl)ccc23)c1` [Example 12, ethyl 3-[3-[7-chloro-3-[2-[[4-fluoro-2-(trifluoromethyl)phenyl]amino]-2-oxoethyl]-2-oxo-2H-chromen-4-yl]phenyl]propionate]: the melting point was in the range of 164 to 165 °C.

`CCOC(=O)CCc1cccc(-c2c(CC(=O)Nc3ccc(F)cc3C(F)(F)F)c(=O)oc3ccccc23)c1` [Example 13, ethyl 3-[3-[3-[2-[[4-fluoro-2-(trifluoromethyl)phenyl]amino]-2-oxoethyl]-2-oxo-2H-chromen-4-yl]phenyl]propionate] returned a melting point of 163 to 164 °C.

Compound `Cc1cc2c(-c3cccc(CCC(=O)O)c3)c(CC(=O)Nc3ccc(F)cc3C(F)(F)F)c(=O)oc2cc1Cl` [Example 14, 3-[5-[7-chloro-3-[2-[[4-fluoro-2-(trifluoromethyl)phenyl]amino]-2-oxoethyl]-6-methyl-2-oxo-2H-chromen-4-yl]phenyl]propionic acid] displayed a melting point of 212 to 214 °C.

`Cc1cc2c(-c3cccc(/C=C/C(=O)O)c3)c(CC(=O)Nc3ccccc3C(F)(F)F)c(=O)oc2cc1Cl` [Example 15, (2E)-3-[3-[7-chloro-6-methyl-2-oxo-3-(2-oxo-2-[[2-(trifluoromethyl)phenyl]amino]ethyl)-2H-chromen-4-yl]phenyl]-2-propenoic acid]: the melting point was 252 to 254 °C.

On to `Cc1cc2oc(=O)c(CC(=O)Nc3ccc(F)cc3C(F)(F)F)c(-c3cccc(/C=C/C(=O)O)c3)c2cc1Cl` [Example 16, (2E)-3-[3-[6-chloro-3-(2-[[4-fluoro-2-(trifluoromethyl)phenyl]amino]-2-oxoethyl)-7-methyl-2-oxo-2H-chromen-4-yl]phenyl]-2-propenoic acid], for which the melting point is 272 to 274 °C.

Take `O=C(O)/C=C/c1cccc(-c2c(CC(=O)Nc3ccc(F)cc3C(F)(F)F)c(=O)oc3cc(Cl)c(F)cc23)c1` [Example 17, (2E)-3-[3-[7-chloro-6-fluoro-3-[2-[[4-fluoro-2-(trifluoromethyl)phenyl]amino]-2-oxoethyl]-2-oxo-2H-chromen-4-yl]phenyl]-2-propenoic acid]: the melting point fell in the range of 245 to 247 °C.

`O=C(O)/C=C/c1cccc(-c2c(CC(=O)Nc3ccc(F)cc3C(F)(F)F)c(=O)oc3cc(Cl)ccc23)c1` [Example 18, (2E)-3-[3-[7-chloro-3-[2-[[4-fluoro-2-(trifluoromethyl)phenyl]amino]-2-oxoethyl]-2-oxo-2H-chromen-4-yl]phenyl]-2-propenoic acid]: the melting point was in the range of 254 to 257 °C.

In turn, `Cc1cc2c(-c3ccc(F)c(/C=C/C(=O)O)c3)c(CC(=O)Nc3ccc(Cl)cc3C(F)(F)F)c(=O)oc2cc1Cl` [Example 19, (2E)-3-[5-[7-chloro-3-[2-[[4-chloro-2-(trifluoromethyl)phenyl]amino]-2-oxoethyl]-6-methyl-2-oxo-2H-chromen-4-yl]-2-fluorophenyl]-2-propenoic acid] showed a melting point of 277 to 279 °C.

On to `Cc1cc2c(-c3cccc(CCC(=O)O)c3)c(CC(=O)Nc3ccccc3C(F)(F)F)c(=O)oc2cc1Cl` [Example 20, 3-[3-[7-chloro-6-methyl-2-oxo-3-(2-oxo-2-[[2-(trifluoromethyl)phenyl]amino]ethyl)-2H-chromen-4-yl]phenyl]propionic acid], for which the melting point was 150 °C (dec.).

Compound `Cc1cc2oc(=O)c(CC(=O)Nc3ccc(F)cc3C(F)(F)F)c(-c3cccc(CCC(=O)O)c3)c2cc1Cl` [Example 21, 3-[3-[6-chloro-3-(2-[[4-fluoro-2-(trifluoromethyl)phenyl]amino]-2-oxoethyl)-7-methyl-2-oxo-2H-chromen-4-yl]phenyl]propionic acid] displayed a melting point of 240 to 242 °C.

With `O=C(O)CCc1cccc(-c2c(CC(=O)Nc3ccc(F)cc3C(F)(F)F)c(=O)oc3cc(Cl)c(F)cc23)c1` [Example 22, 3-[3-[7-chloro-6-fluoro-3-[2-[[4-fluoro-2-(trifluoromethyl)phenyl]amino]-2-oxoethyl]-2-oxo-2H-chromen-4-yl]phenyl]propionic acid], the melting point fell in the range of 198 to 200 °C.

Regarding `O=C(O)CCc1cccc(-c2c(CC(=O)Nc3ccc(F)cc3C(F)(F)F)c(=O)oc3cc(Cl)ccc23)c1` [Example 23, 3-[3-[7-chloro-3-[2-[[4-fluoro-2-(trifluoromethyl)phenyl]amino]-2-oxoethyl]-2-oxo-2H-chromen-4-yl]phenyl]propionic acid], the melting point was in the range of 211 to 212 °C.

Regarding `O=C(O)CCc1cccc(-c2c(CC(=O)Nc3ccc(F)cc3C(F)(F)F)c(=O)oc3ccccc23)c1` [Example 24, 3-[3-[3-[2-[[4-fluoro-2-(trifluoromethyl)phenyl]amino]-2-oxoethyl]-2-oxo-2H-chromen-4-yl]phenyl]propionic acid], the melting point is 230 to 232 °C.

In turn, `Cc1cc2c(-c3cccc(/C=C/c4nnn[nH]4)c3)c(CC(=O)Nc3ccc(F)cc3C(F)(F)F)c(=O)oc2cc1Cl` [Example 41, 2-(7-chloro-6-methyl-2-oxo-4-{3-[(E)-2-(1H-tetrazol-5-yl)ethenyl]phenyl}-2H-chromen-3-yl)-N-[4-fluoro-2-(trifluoromethyl)phenyl]acetamide] came in with a melting point of 216 to 218 °C.

The compound `COC(=O)c1ccc(-c2c(CC(=O)Nc3ccc(F)cc3C(F)(F)F)c(=O)oc3cc(Cl)c(C)cc23)cc1` [Example 45, Methyl 4-(7-chloro-3-{2-[4-fluoro-2-(trifluoromethyl)anilino]-2-oxoethyl}-6-methyl-2-oxo-2H-chromen-4-yl)benzoate] came in with a melting point of 202 to 204 °C.

As for `CCOC(=O)/C=C/C=C/c1cccc(-c2c(CC(=O)Nc3ccc(F)cc3C(F)(F)F)c(=O)oc3cc(Cl)c(C)cc23)c1` [Example 51, Ethyl (2E,4E)-5-[3-(7-chloro-3-{2-[4-fluoro-2-(trifluoromethyl)anilino]-2-oxoethyl}-6-methyl-2-oxo-2H-chromen-4-yl)phenyl]-2,4-pentadienoate], the melting point is 216 to 218 °C.

In turn, `CCOC(=O)CNCc1cccc(-c2c(CC(=O)Nc3ccc(F)cc3C(F)(F)F)c(=O)oc3cc(Cl)c(C)cc23)c1` [Example 62, Ethyl ({3-[7-chloro-3-(2-{[4-fluoro-2-(trifluoromethyl)phenyl]amino}-2-oxoethyl)-6-methyl-2-oxo-2H-chromen-4-yl]benzyl}amino)acetate] displayed a melting point of 153 to 155 °C.

Compound `CCOC(=O)CSCc1cccc(-c2c(CC(=O)Nc3ccc(F)cc3C(F)(F)F)c(=O)oc3cc(Cl)c(C)cc23)c1` [Example 63, Ethyl ({3-[7-chloro-3-(2-{[4-fluoro-2-(trifluoromethyl)phenyl]amino}-2-oxoethyl)-6-methyl-2-oxo-2H-chromen-4-yl]benzyl}thio)acetate] displayed a melting point of 106 to 108 °C.
